Reference: PMC2762440 (Journal of medicinal chemistry, 2009)
Values belong to the compound of their own block, whether it stands above or below them.

Assays:
ICR mice = experiment: Forced-swim test in ICR mice; format: in vivo, mouse; details: for immobility in the forced-swim test vs vehicle: 3 mg/kg, P < 0.05; for duration of immobility in the forced-swim test: doses of 0.3 and 3 mg/kg
Balb/c mice = experiment: Forced-swim test in Balb/c mice; format: in vivo, mouse; details: for duration of immobility in the forced-swim test: acute, i.p. 30 min prior; for immobility in the forced-swim test vs vehicle: subchronic, i.p. 23, 5 and 1 hr prior
Human PDE4D3 = Human PDE4D3 (Homo sapiens, UniProt Q08499); experiment: Inhibition of cAMP hydrolysis by recombinant PDE4D3; format: biochemical; details: read-out: Human PDE4D3 Ki, recombinant enzyme
Sequence of Human PDE4D3 (Q08499 1-673 isoform Q08499-2): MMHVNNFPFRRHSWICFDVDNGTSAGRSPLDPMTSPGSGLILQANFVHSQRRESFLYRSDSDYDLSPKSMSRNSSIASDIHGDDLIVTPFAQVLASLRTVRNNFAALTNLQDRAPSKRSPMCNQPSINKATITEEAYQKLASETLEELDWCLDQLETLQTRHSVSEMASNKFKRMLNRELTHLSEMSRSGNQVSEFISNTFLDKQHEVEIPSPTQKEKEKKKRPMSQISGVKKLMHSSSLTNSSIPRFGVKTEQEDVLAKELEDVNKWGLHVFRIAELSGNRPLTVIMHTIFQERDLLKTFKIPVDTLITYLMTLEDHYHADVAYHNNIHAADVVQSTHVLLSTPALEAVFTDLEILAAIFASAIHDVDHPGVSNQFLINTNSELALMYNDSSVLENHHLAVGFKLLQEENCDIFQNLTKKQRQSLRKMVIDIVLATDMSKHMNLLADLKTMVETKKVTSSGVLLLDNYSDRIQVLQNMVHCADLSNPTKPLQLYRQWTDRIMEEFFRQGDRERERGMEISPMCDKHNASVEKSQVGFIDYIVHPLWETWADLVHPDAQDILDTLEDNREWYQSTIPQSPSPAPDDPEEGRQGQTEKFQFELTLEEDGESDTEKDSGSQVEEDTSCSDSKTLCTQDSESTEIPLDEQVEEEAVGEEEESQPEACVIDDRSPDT

[1] = Human liver microsome stability assay; format: in vitro ADME; details: human liver microsomes + NADPH, 40 µM compound, 37 °C
[2] = Mouse liver microsome stability assay; format: in vitro ADME; details: mouse liver microsomes + NADPH, 40 µM compound, 37 °C
[3] = ICR mice, acute, i.p. 30 min prior

SMILES: COc1ccc(F)cc1CCC1CCC(CCN)O1 (stereo not drawn) [Compound 14, 2-{5-[3-(5-Fluoro-2-methoxy-phenyl)-ethyl]-tetrahydro-furan-2-yl}-ethylamine]
immobility in the forced-swim test (ICR mice; ICR mice, acute, i.p. 30 min prior, 10 and 30 mg/kg): tended to decrease immobility, but this effect was not statistically significant
duration of immobility in the forced-swim test (Balb/c mice; 10 mg/kg): did not markedly alter the duration of immobility
immobility in the forced-swim test vs vehicle (Balb/c mice; 10 mg/kg): did not change immobility

SMILES: COc1ccc(F)cc1CCCC1CCC(CCN)O1 (stereo not drawn) [Compound 15, 2-{5-[3-(5-Fluoro-2-methoxy-phenyl)-propyl]-tetrahydro-furan-2-yl}-ethylamine]
duration of immobility in the forced-swim test (Balb/c mice; 10 mg/kg): did not markedly alter the duration of immobility
immobility in the forced-swim test vs vehicle (Balb/c mice; 1 mg/kg): did not change immobility

Ki (Human PDE4D3): 6.3 nM
SMILES: COc1ccc(C2=NNC(=O)C3CC=CCC23)cc1OC (stereo not drawn) [Compound 19, 4-(3,4-Dimethoxy-phenyl)-4a,5,8,8a-tetrahydro-2H-phthalazin-1-one, reference compound]
immobility in the forced-swim test vs vehicle (ICR mice; [3]): significantly decreased immobility
duration of immobility in the forced-swim test (ICR mice; [3]): decreased duration of immobility in a dose-dependent manner

HLM t1/2 [1]: not detectably metabolized
SMILES: COc1ccc(F)cc1CCC1CCC(CCNCCCCCN2N=C(c3ccc(OC)c(OC)c3)[C@H]3CC=CC[C@H]3C2=O)O1 (stereo partly drawn) [Compound 21]
immobility in the forced-swim test vs vehicle (ICR mice; [3]): significantly decreased immobility
duration of immobility in the forced-swim test (ICR mice; [3]): decreased duration of immobility in a dose-dependent manner
immobility in the forced-swim test vs vehicle (Balb/c mice; 1 mg/kg): did not change immobility

HLM t1/2 [1]: No detectable metabolic instability
SMILES: COc1ccc(F)c(CCCC2CCC(CCNCCCCCN3N=C(c4ccc(OC)c(OC)c4)[C@H]4CC=CC[C@H]4C3=O)O2)c1 (stereo partly drawn) [Compound 22]

MLM t1/2 [2]: 58.5 min
SMILES: CNCCC1CCC(CCc2cc(F)ccc2OC)O1 (stereo not drawn) [Compound 24]

SMILES: COc1ccc(C2CNC(=O)C2)cc1OC1CCCC1 (stereo not drawn) [Rolipram, reference compound]
effect in the forced-swim test (ICR mice; acute treatment 0.5 mg/kg, data not shown): did not alter FST behavior
